Test results as given in patent publication US10906938B2, “Cell epitopes and combination of cell epitopes for use in the immunotherapy of myeloma and other cancers” (Immatics Biotechnologies GmbH, priority 2015, dated 2021).

Experiments:
[1] = tested on: MM.1S cells; experiment: HLA class I ligand presentation upon carfilzomib treatment on MM.1S cells (LC-MS/MS); assay type: cell-based, human; design: key to modulation upon carfilzomib-treatment 24 #1 / modulation upon carfilzomib-treatment 24 #2 / modulation upon carfilzomib-treatment 24 #3 / modulation upon carfilzomib-treatment 48 #1 / modulation upon carfilzomib-treatment 48 #2 / modulation upon carfilzomib-treatment 48 #3: −1: significantly down-modulated; 0: not signifcant/not detected; 1: significantly up-modulated; conditions: for modulation upon carfilzomib-treatment 24 #1 / modulation upon carfilzomib-treatment 24 #2 / modulation upon carfilzomib-treatment 24 #3 / modulation upon carfilzomib-treatment 48 #1 / modulation upon carfilzomib-treatment 48 #2 / modulation upon carfilzomib-treatment 48 #3: MM.1S cells, vs mock-treated controls; for modulation upon carfilzomib-treatment 24 #1 / modulation upon carfilzomib-treatment 24 #2 / modulation upon carfilzomib-treatment 24 #3: 24 h after carfilzomib treatment (100 nM, 1 h); for modulation upon carfilzomib-treatment 24 #1 / modulation upon carfilzomib-treatment 48 #1: biological replicate #1; for modulation upon carfilzomib-treatment 24 #2 / modulation upon carfilzomib-treatment 48 #2: biological replicate #2; for modulation upon carfilzomib-treatment 24 #3 / modulation upon carfilzomib-treatment 48 #3: biological replicate #3; for modulation upon carfilzomib-treatment 48 #1 / modulation upon carfilzomib-treatment 48 #2 / modulation upon carfilzomib-treatment 48 #3: 48 h after carfilzomib treatment (100 nM, 1 h)
Method: HLA class I and II molecules were isolated using standard immunoaffinity purification as described using the pan-HLA class I specific mAb W6/32, the pan-HLA class II specific mAb T039 and the HLA-DR specific mAB L243 (produced in house).
HLA ligand extracts were analyzed in 5 technical replicates as described previously. In brief, peptide samples were separated by nanoflow HPLC (RSLCnano, ThermoFisher) using a 50 μm×25 cm PepMap RSLC column (Thermo Fisher) and a gradient ranging from 2.4 to 32.0% acetonitrile over the course of 90 min. Eluting peptides were analyzed in an online coupled LTQ Orbitrap XL mass spectrometer (Thermo Fisher) using a top 5 CID (collision induced dissociation) fragmentation method.
Data processing was performed as described previously. In brief, the Mascot search engine (Mascot 2.2.04; Matrix Science, London, UK) was implemented to search the human proteome as comprised in the Swiss-Prot database (20,279 reviewed protein sequences, September 2013) without enzymatic restriction. Potential mutated HLA ligands were searched implementing a database containing the human proteome concatenated with proteins containing single amino acid variants (SAVs) listed in the COSMIC database (http://cancer.sanger.ac.uk/cosmic/). Only recurrent SAVs described in 2 or more samples of hematological origin were included. Oxidized methionine was allowed as a dynamic modification. The false discovery rate was estimated using the Percolator algorithm and set to 5%. Peptide lengths were limited to 8-12 amino acids for HLA class I and 12-25 amino acids for HLA class II. Protein inference was disabled, allowing for multiple protein annotations of peptides. HLA annotation was performed using SYFPEITHI [46] or an extended in-house database. Experimental validation of peptide identifications and HLA annotations was performed by mass spectrometric and functional characterization of synthetic peptides for a subset of peptides.
The inventors quantitatively assessed HLA class I ligand presentation during proteasome inhibitor therapy. Observed was a considerable plasticity of the HLA class I ligandome after treatment with carfilzomib with 17.9±1.1% of MM.1S ligands and 11.2±0.7% of U266 ligands (mean of three biological replicates ±s.d.) showing significant modulation (fold-change ≥4, Po0.01 after Benjamini-Hochberg correction) at t24 h compared with mock-treated controls. Briefly, Cultured MCLs (MM.1S and U266) and primary myeloma samples were incubated with carfilzomib (100 nM, Kyprolis®, available, e.g., from Onyx Pharmaceuticals, Inc.) as an example for a proteasome inhibitor for a 1-h period, followed by three washes in PBS (Gibco) and recultured for additional 24 or 48 h. Controls were incubated with vehicle control (glucose 5%) for 1 h, followed by identical washing and incubation for 24 or 48 h. Experiments were conducted in three biological replicates where indicated.

[2] = tested on: U266 cells; experiment: HLA class I ligand presentation upon carfilzomib treatment on U266 cells (LC-MS/MS); assay type: cell-based, human; design: key to modulation upon carfilzomib-treatment 24 #1 / modulation upon carfilzomib-treatment 24 #2 / modulation upon carfilzomib-treatment 24 #3 / modulation upon carfilzomib-treatment 48 #1 / modulation upon carfilzomib-treatment 48 #2 / modulation upon carfilzomib-treatment 48 #3: −1: significantly down-modulated; 0: not signifcant/not detected; 1: significantly up-modulated; conditions: for modulation upon carfilzomib-treatment 24 #1 / modulation upon carfilzomib-treatment 24 #2 / modulation upon carfilzomib-treatment 24 #3 / modulation upon carfilzomib-treatment 48 #1 / modulation upon carfilzomib-treatment 48 #2 / modulation upon carfilzomib-treatment 48 #3: U266 cells, vs mock-treated controls; for modulation upon carfilzomib-treatment 24 #1 / modulation upon carfilzomib-treatment 24 #2 / modulation upon carfilzomib-treatment 24 #3: 24 h after carfilzomib treatment (100 nM, 1 h); for modulation upon carfilzomib-treatment 24 #1 / modulation upon carfilzomib-treatment 48 #1: biological replicate #1; for modulation upon carfilzomib-treatment 24 #2 / modulation upon carfilzomib-treatment 48 #2: biological replicate #2; for modulation upon carfilzomib-treatment 24 #3 / modulation upon carfilzomib-treatment 48 #3: biological replicate #3; for modulation upon carfilzomib-treatment 48 #1 / modulation upon carfilzomib-treatment 48 #2 / modulation upon carfilzomib-treatment 48 #3: 48 h after carfilzomib treatment (100 nM, 1 h)
How it was run: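 MM.1S and U266 myeloma cells were pulsed with 100 nM carfilzomib for 1 h, washed and recultured 24 or 48 h; controls got 5% glucose vehicle. HLA class I ligands were immunopurified with W6/32 and analysed by nanoLC-MS/MS (CID, 5 technical replicates, 5% FDR, 8-12-mers). Modulation versus mock was scored as fold-change ≥4 with Benjamini-Hochberg-corrected significance.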

[3] = carfilzomib 100 nM for 1 h, t24 h vs mock-treated controls, fold-change ≥4, Po0.01 after Benjamini-Hochberg correction, mean of three biological replicates ±s.d.

| Compound | MM.1S ligands showing significant modulation [1, 3] | U266 ligands showing significant modulation [2, 3] | modulation upon carfilzomib-treatment 24 #1 [1] | modulation upon carfilzomib-treatment 24 #2 [1] | modulation upon carfilzomib-treatment 24 #3 [1] | modulation upon carfilzomib-treatment 48 #1 [1] | modulation upon carfilzomib-treatment 48 #2 [1] | modulation upon carfilzomib-treatment 48 #3 [1] | modulation upon carfilzomib-treatment 24 #1 [2] | modulation upon carfilzomib-treatment 24 #2 [2] | modulation upon carfilzomib-treatment 24 #3 [2] | modulation upon carfilzomib-treatment 48 #1 [2] | modulation upon carfilzomib-treatment 48 #2 [2] | modulation upon carfilzomib-treatment 48 #3 [2] |
| --- | --- | --- | --- | --- | --- | --- | --- | --- | --- | --- | --- | --- | --- | --- |
| CC(C)C[C@H](NC(=O)[C@H](CCc1ccccc1)NC(=O)CN1CCOCC1)C(=O)N[C@@H](Cc1ccccc1)C(=O)N[C@@H](CC(C)C)C(=O)[C@@]1(C)CO1 [carfilzomib, reference compound] | 17.9±1.1% | 11.2±0.7% |  |  |  |  |  |  |  |  |  |  |  |  |
| APRHPSTNSL |  |  | 0 | 0 | 1 | 0 | 0 | 0 | 0 | 1 | 0 | 1 | 1 | 0 |
| FAYPAIRYL |  |  | 0 | 0 | 0 | 0 | 0 | 0 | 0 | 0 | 0 | 1 | 0 | 1 |
| FVFPGELLL |  |  | 0 | 0 | 0 | 0 | 0 | 0 | 1 | 1 | 0 | 0 | 0 | 0 |
| IPAKPPVSF |  |  | 0 | 0 | 0 | 0 | 0 | 0 | 0 | 0 | 0 | 0 | 0 | 0 |
| KPQPRPQTL |  |  | 1 | 1 | 1 | 0 | 0 | 0 | 0 | 0 | 0 | 0 | 0 | 0 |
| KPRPPQGL |  |  | 1 | 1 | 1 | 1 | 0 | 0 | 0 | 0 | 0 | 1 | 1 | 1 |
| RPKAQPTTL |  |  | 0 | 0 | 1 | 0 | 0 | 0 | 0 | 0 | 0 | 0 | 0 | 0 |
